In patent US5206252A, “Thiadiazolyl-amino derivatives of benzopyrans and indanes” (American Home Products Corporation, priority 1992, dated 1993):

Tested on: Isolated Rat Bladder Strips
Assay: Inhibition of Contractions in Isolated Rat Bladder Strips (smooth muscle relaxing activity, 15 mM KCl-enhanced contractile activity)
Parameters: species or system Sprague-Dawley rats
Settings: for inhibition at 30 µM: Rattus norvegicus, maximum percentage inhibition of contractile activity, read-out: Inhibition of Force (%) at (X) μM
Text: The smooth muscle relaxing activity of the compounds of this invention was established in accordance with standard pharmaceutically accepted test procedures in representative compounds as follows:
Sprague-Dawley rats (150-200 g) are rendered unconscious by CO2 asphyxiation and then euthanized by cervical dislocation. The bladder is removed into warm (37 deg.C.) physiological salt solution (PSS) of the following composition (mM): NaCl, 118.4; KCl, 4.7; CaCl2, 2.5; […]; NaHCO3, 24.9; KH2 PO4, 1.2; glucose, 11.1; EDTA, 0.023; gassed with […]; pH 7.4. The bladder is opened and then cut into strips 1-2 mm in width and 7-10 mm in length. The strips are subsequently suspended in a 10 ml tissue bath under an initial resting tension of 1.5 g. The strips are held in place by two surgical clips one of which is attached to fixed hook while the other is attached to an isometric force transducer. […] The carbachol is then washed out and the tissue allowed to relax to its resting level of activity. Following an additional 30 minute period of recovery an additional 15 mM KCl are introduced into the tissue bath. This increase in KCl concentration results in a large increase in the amplitude of spontaneous contractions (and initiation of contractions in previously quiescent strips) superimposed upon a small increase in basal tone. Following stabilization of this enhanced level of contractile activity, incremental increases in the concentration of test compound or vehicle are introduced into the tissue bath. Contractile activity is measured for each compound or vehicle concentration during the last min of a 30 min challenge.
Isometric force developed by the bladder strips is measured using a […] to elicit 50% inhibition of pre-drug contractile activity (IC50 concentration) is calculated from this concentration-response curve. The maximum percentage inhibition of contractile activity evoked by a test compound is also recorded for concentrations of test compound<or equal to 30 uM.

IC50 (0.5 h, isolated rat bladder strips, 15 mM KCl, last min of a 30 min challenge, read-out: IC50 (concentration required to elicit 50% inhibition of pre-drug contractile activity))	Structure (SMILES)	inhibition at 30 µM
	CC1(C)Oc2ccc(OC(F)(F)F)cc2[C@@H](NC2=NS(=O)(=O)N=C2N)[C@@H]1O [Example 2, (-)-(3S,4R)-4-(4-Amino-1,1-dioxo-[1,2,5]thiadiazol-3-ylamino)2,2-dimethyl-6-trifluoromethoxy-chroman-3-ol]	33%
4.8 µM	CNC1=NS(=O)(=O)N=C1N[C@@H]1c2cc(OC(F)(F)F)ccc2OC(C)(C)[C@H]1O [Example 3, (-)-(3S,4R)-2,2-Dimethyl-4-(4-methylamino-1,1-dioxo-[1,2,5]-thiadiazol-3-ylamino)-6-trifluoromethoxy-chroman-3-ol]	95%
